How the values were obtained:
[1] = test system: RSV; assay: XTT assay, RSV-infected Hep-2 cells; assay type: cell-based, Respiratory Syncytial Virus (RSV); settings: Table 2, Examples 75 to 82 and 125 to 184, Hep-2 cells infected with RSV, 6 days at 37° C.
Experimental: Examples 75 to 82 and 125 to 184 were tested according to the protocol described below.
(§1) The inner 60 wells of 96 well tissue culture plates were seeded with Hep-2 cells at 4×10^4 cells/well for compound activity and toxicity studies in 100 μl of medium and incubated at 37° C. overnight or until nearing confluency.
(§2) Cells were infected with 25 μl RSV previously titrated to give 80% cell kill. To each well 25 μM of test compound were added. The final DMSO concentration was 0.5%. Some 200 μl of sterile distilled water were added to the outer wells of the plate and incubated at 37° C. for 6 days. Some 0.25 μl/ml PMS were added to stock […] solution, final conc. 25 μM PMS. Then 25 μl warmed XTT/PMS solution were added to each well and incubated for 1 hour at 37° C.
Maximum OD450nm reading (uninfected, untreated control cells) corresponded to 100% inhibition. Minimum OD450nm readings (infected control cells) corresponded to 0% inhibition. Log 10 concentration was plotted against OD450nm and IC50 values were calculated from either reading 50% value from graph or using regression analysis.

[2] = test system: Hep-2 cells; assay: Toxicity studies (XTT), Hep-2 cells; assay type: cell-based; design: TC50 (6d): unit not given beside the values; settings: for TC50 (6d): Table 2, Examples 75 to 82 and 125 to 184, 6d, in µM; for TC50 (2d): Table 2, Examples 75 to 82 and 125 to 184, 2d
Experimental: as §1
as §2, with “Some 200 μl of sterile distilled water were added to the outer wells of the plate and incubated at 37° C. for 6 days.” left out

[3] = test system: RSV; assay: XTT assay, RSV-infected Vero cells; assay type: cell-based, Respiratory Syncytial Virus (RSV); settings: Vero cells infected with RSV, m.o.i.≈0.2, 6 days at 33° C.
How it was run: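 Vero cells infected with RSV at m.o.i.≈0.2 in presence of serially ½-log diluted compound, incubated 6 days at 33 °C. Viability read by XTT/PMS (5 h, 37 °C) at OD450; uninfected untreated cells = 100%, infected controls = 0% inhibition. IC50 from graph or regression; parallel uninfected plates for toxicity.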

[4] = test system: Vero cells; assay: Simultaneous toxicity investigation (XTT), Vero cells; assay type: cell-based; design: unit not given here; settings: for TC50 (2d): Table 2, Examples 83 to 124, 2d; for TC50 (6d): Table 2, Examples 83 to 124, 6d
Experimental: The inner 60 wells of 96 well tissue culture plates were seeded with Vero cells at 3×10^4 cells/well (1×10^4 cells/well for toxicity studies) in 100 or 150 μl of medium and incubated at 37° C. overnight or until nearing confluency. For primary screen, 25 μl compounds were added directly to 100 μl medium in single wells to duplicate plates. A third plate was prepared for simultaneous toxicity investigation.
For follow-up investigation, 70 μl of compound in duplicate wells were added directly to culture medium at 3.2× final concentration and ½ log serially diluted down columns of plate. A duplicate plate was prepared for simultaneous toxicity investigation.
Cells were infected with 25 μl RSV to give m.o.i.≈0.2. […] Some 0.25 μl/ml PMS were added to stock XTT solution, final conc. […]. Then 25 μl warmed XTT/PMS solution were added to each well and incubated for 5 hours at 37° C. Plates were shaken (DynaTech Vari-Shaker) vigorously for 10 mins and allowed to cool for 15 mins before sealing. Absorbance at 450 nm was measured and data analysed using Microsoft Excel software.

[5] = human respiratory syncytial virus, 144 h
[6] = human respiratory syncytial virus, Vero, 144 h, read-out: XTT IC50 (uM), Table 2, Examples 83 to 124
[7] = Table 2, Examples 83 to 124, read-out: XTT IC50

| Molecule | IC50 [1, 5] [µM] | TC50 (6d) [2] | IC50 [1] [µM] | TC50 (2d) [2] [µM] | IC50 [3, 6] [µM] | TC50 (2d) [4] | TC50 (6d) [4] | IC50 [3, 7] [µM] |
| --- | --- | --- | --- | --- | --- | --- | --- | --- |
| COc1cc(S(C)(=O)=O)ccc1C(=O)N[C@H]1N=C(c2ccccc2)c2ccccc2NC1=O [Example 75b, (S)-4-Methanesulfonyl-2-methoxy-N-(2-oxo-5-phenyl-2,3-dihydro-1H-benzo[e][1,4]diazepin-3-yl)-benzamide] | 0.6 | >50 |  |  |  |  |  |  |
| N-[5-(3-Chloro-phenyl)-2-oxo-5-phenyl-2,3-dihydro-1H-benzo[e][1,4]diazepin-3-yl]-isobutyramide [Example 155] |  | >100 | 6 | > 100 |  |  |  |  |
| O=C(NC1N=C(c2ccccc2)c2ccccc2NC1=O)c1ccccc1O (stereo not shown) [Example 80a, 2-Hydroxy-N-(2-oxo-5-phenyl-2,3-dihydro-1H-benzo[e][1,4]diazepin-3-yl)-benzamide] | 8.7 | 33 |  |  |  |  |  |  |
| O=C(Nc1cccc(F)c1)NC1N=C(c2ccccc2)c2ccccc2NC1=O (stereo not shown) [Example 128, 1-(3-Fluoro-phenyl)-3-(2-oxo-5-phenyl-2,3-dihydro-1H-benzo[e][1,4]diazepin-3-yl)-urea] | 6.1 | >50 |  |  |  |  |  |  |
| O=C(NC1N=C(c2ccccc2)c2ccc(Cl)cc2NC1=O)C1CCCCC1 (stereo not shown) [Example 168, Cyclohexanecarboxylic acid (8-chloro-2-oxo-5-phenyl-2,3-dihydro-1H-benzo[e][1,4]diazepin-3-yl)-amide] | 5 | >100 |  | > 100 |  |  |  |  |
| COc1ccc(CNC(=O)NC2N=C(c3ccccc3)c3ccccc3NC2=O)cc1 (stereo not shown) [Example 85, 1-(4-Methoxy-benzyl)-3-(2-oxo-5-phenyl-2,3-dihydro-1H-benzo[e][1,4]diazepin-3-yl)-urea] |  |  |  |  | 4 | >100 | >100 |  |
| COc1ccc(C(=O)NC2N=C(c3cccc(C(F)(F)F)c3)c3ccccc3NC2=O)cc1 (stereo not shown) [Example 105] |  |  |  |  |  | >100 | >100 | 9 |
| O=C(Nc1ccc(OC(F)(F)F)cc1)NC1N=C(c2ccccc2)c2ccccc2NC1=O (stereo not shown) [Example 116, 1-(2-Oxo-5-phenyl-2,3-dihydro-1H-benzo[e][1,4]diazepin-3-yl)-3-(4-trifluoromethoxy-phenyl)-urea] |  |  |  |  | 2 | 20 | 20 |  |
| O=C(Nc1ccc(C(F)(F)F)cc1)NC1N=C(c2ccccc2)c2ccccc2NC1=O (stereo not shown) [Example 87, 1-(2-Oxo-5-phenyl-2,3-dihydro-1H-benzo[e][1,4]diazepin-3-yl)-3-(4-trifluoromethyl-phenyl)-urea] |  |  |  |  | 4 | 50 | 50 |  |
| N-[5-(3-Chloro-phenyl)-2-oxo-5-phenyl-2,3-dihydro-1H-benzo[e][1,4]diazepin-3-yl]-2-nitro-benzamide [Example 101] |  |  |  |  |  | 100 | 100 | 2.5 |
| COc1ccc(Br)c(C(=O)NC2N=C(c3ccccc3)c3ccccc3NC2=O)c1 (stereo not shown) [Example 108, 2-Bromo-5-methoxy-N-(2-oxo-5-phenyl-2,3-dihydro-1H-benzo[e][1,4]diazepin-3-yl)-benzamide] |  |  |  |  | 2 | >100 | >100 |  |
| O=C(Nc1ccc([N+](=O)[O-])cc1)NC1N=C(c2ccccc2)c2ccccc2NC1=O (stereo not shown) [Example 122, 1-(4-Nitro-phenyl)-3-(2-oxo-5-phenyl-2,3-dihydro-1H-benzo[e][1,4]diazepin-3-yl)-urea] |  |  |  |  | 0.4 | 60 | 20 |  |
| COc1ccc(Cl)cc1C(=O)NC1N=C(c2ccccc2)c2ccccc2NC1=O (stereo not shown) [Example 91, 5-chloro-2-methoxy-N-(2-oxo-5-phenyl-2,3-dihydro-1H-benzo[e][1,4]diazepin-3-yl)benzamide] |  |  |  |  | 0.3 | 100 | 100 |  |
| COc1ccc(F)cc1C(=O)NC1N=C(c2ccccc2)c2ccccc2NC1=O (stereo not shown) [Example 92, 5-Fluoro-2-methoxy-N-(2-oxo-5-phenyl-2,3-dihydro-1H-benzo[e][1,4]diazepin-3-yl)-benzamide] |  |  |  |  | < 0.3 | 100 | 100 |  |
| CN(C)c1ccccc1C(=O)NC1N=C(c2ccccc2)c2ccccc2NC1=O (stereo not shown) [Example 113, 2-Dimethylamino-N-(2-oxo-5-phenyl-2,3-dihydro-1H-benzo[e][1,4]diazepin-3-yl)-benzamide] |  |  |  |  | 1.5 | >100 | >100 |  |
| CSc1ccccc1NC(=O)NC1N=C(c2ccccc2)c2ccccc2NC1=O (stereo not shown) [Example 123, 1-(2-Methylsulfanyl-phenyl)-3-(2-oxo-5-phenyl-2,3-dihydro-1H-benzo[e][1,4]diazepin-3-yl)-urea] |  |  |  |  | 2 | >100 | 100 |  |
| COc1cc(S(C)(=O)=O)ccc1C(=O)NC1N=C(c2ccccc2)c2ccccc2NC1=O (stereo not shown) [Example 75a, 4-Methanesulfonyl-2-methoxy-N-(2-oxo-5-phenyl-2,3-dihydro-1H-benzo[e][1,4]diazepin-3-yl)-benzamide] | 2.4 |  |  |  |  |  |  |  |
| COc1cccc(C(=O)NC2N=C(c3ccccc3)c3ccccc3NC2=O)c1[N+](=O)[O-] (stereo not shown) [Example 90, 3-Methoxy-2-nitro-N-(2-oxo-5-phenyl-2,3-dihydro-1H-benzo[e][1,4]diazepin-3-yl)-benzamide] |  |  |  |  | 0.5 | 100 | 100 |  |
| N-[5-(3-Methoxy-phenyl)-2-oxo-5-phenyl-2,3-dihydro-1H-benzo[e][1,4]diazepin-3-yl]nitro-benzamide [Example 110] |  |  |  |  |  | >100 | >100 | 5 |
| O=C(NCc1ccc(Br)cc1)NC1N=C(c2ccccc2)c2ccccc2NC1=O (stereo not shown) [Example 118, 1-(4-Bromo-benzyl)-3-(2-oxo-5-phenyl-2,3-dihydro-1H-benzo[e][1,4]diazepin-3-yl)-urea] |  |  |  |  | 2 | >100 | 100 |  |
| O=C(Nc1c(Cl)cccc1Cl)NC1N=C(c2ccccc2)c2ccccc2NC1=O (stereo not shown) [Example 124, 1-(2,6-Dichloro-phenyl)-3-(2-oxo-5-phenyl-2,3-dihydro-1H-benzo[e][1,4]diazepin-3-yl)-urea] |  |  |  |  | 5 | 70 | 60 |  |
| COc1ccc(C(=O)NC2N=C(c3ccccc3)c3ccccc3NC2=O)c(OC)c1 (stereo not shown) [Example 107, 2,4-Dimethoxy-N-(2-oxo-5-phenyl-2,3-dihydro-1H-benzo[e][1,4]diazepin-3-yl)-benzamide] |  |  |  |  | < 0.3 | 60 | 60 |  |
| COc1ccc([N+](=O)[O-])c(C(=O)NC2N=C(c3ccccc3)c3ccccc3NC2=O)c1 (stereo not shown) [Example 94, 5-Methoxy-2-nitro-N-(2-oxo-5-phenyl-2,3-dihydro-1H-benzo[e][1,4]diazepin-3-yl)-benzamide] |  |  |  |  | 1.5 | >100 | >100 |  |
| CCOc1ccccc1C(=O)NC1N=C(c2ccccc2)c2ccccc2NC1=O (stereo not shown) [Example 106, 2-Ethoxy-N-(2-oxo-5-phenyl-2,3-dihydro-1H-benzo[e][1,4]diazepin-3-yl)-benzamide] |  |  |  |  | 0.7 | >100 | >100 |  |
| O=C(NC1N=C(c2ccccc2)c2ccccc2NC1=O)OCc1ccccc1 (stereo not shown) [Example 114, (2-Oxo-5-phenyl-2,3-dihydro-1H-benzo[e][1,4]diazepin-3-yl)-carbamic acid benzyl ester] |  |  |  |  | 5 | >100 | 60 |  |
